According to ChEMBL document CHEMBL1135034, “Design and synthesis of dual inhibitors for matrix metalloproteinase and cathepsin” (Bioorg Med Chem Lett, 2002):

Experiments:
Procathepsin L = Procathepsin L (Homo sapiens, UniProt P07711); assay: Inhibition of Cathepsin L from human kidney; assay type: tissue-based
Interstitial collagenase = target: T1, Interstitial collagenase (Homo sapiens, UniProt P03956); assay: Inhibition of Matrix metalloprotease-1
T1 sequence (P03956 whole entry): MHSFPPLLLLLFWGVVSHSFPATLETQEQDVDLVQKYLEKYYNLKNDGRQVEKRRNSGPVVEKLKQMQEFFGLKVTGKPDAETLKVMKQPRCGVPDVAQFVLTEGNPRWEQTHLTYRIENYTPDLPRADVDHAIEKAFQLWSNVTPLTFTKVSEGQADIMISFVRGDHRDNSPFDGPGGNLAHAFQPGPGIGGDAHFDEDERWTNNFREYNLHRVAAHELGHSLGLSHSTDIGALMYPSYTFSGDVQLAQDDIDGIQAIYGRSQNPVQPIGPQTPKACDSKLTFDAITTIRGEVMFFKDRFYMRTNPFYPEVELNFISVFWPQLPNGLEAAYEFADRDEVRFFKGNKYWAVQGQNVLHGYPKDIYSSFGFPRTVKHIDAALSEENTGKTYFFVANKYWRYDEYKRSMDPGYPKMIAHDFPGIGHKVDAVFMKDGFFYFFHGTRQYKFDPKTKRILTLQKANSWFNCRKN

Procathepsin L, sequence (P07711 whole entry): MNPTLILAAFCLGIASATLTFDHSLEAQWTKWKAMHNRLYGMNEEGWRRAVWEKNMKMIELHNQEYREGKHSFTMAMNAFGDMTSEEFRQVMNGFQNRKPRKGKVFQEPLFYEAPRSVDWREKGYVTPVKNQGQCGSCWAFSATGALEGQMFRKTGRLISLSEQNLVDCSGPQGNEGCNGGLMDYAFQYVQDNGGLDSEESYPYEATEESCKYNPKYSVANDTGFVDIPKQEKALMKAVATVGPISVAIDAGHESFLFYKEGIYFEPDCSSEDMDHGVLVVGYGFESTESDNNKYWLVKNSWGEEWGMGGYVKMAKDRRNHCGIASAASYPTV

Structure (SMILES) | IC50 (Procathepsin L) [nM] | IC50 (Interstitial collagenase) [nM]
C[C@@H](C=O)NC(=O)[C@H](Cc1ccccc1)NC(=O)OCc1ccccc1 | 3 | > 1000
CC(C)C[C@H](CC(=O)NO)C(=O)N[C@@H](Cc1ccccc1)C(=O)N[C@@H](C)C=O | 15 | 25
CC(C)C[C@H](CC(=O)NO)C(=O)N[C@@H](Cc1ccccc1)C(=O)NCC=O | 4300 | 12
CCOC(OCC)[C@H](C)NC(=O)[C@H](Cc1ccccc1)NC(=O)[C@@H](CC(=O)NO)CC(C)C | > 1000 | 29
CC(C)C[C@H](CC(=O)NO)C(=O)N[C@@H](Cc1ccccc1)C(=O)N[C@H](C=O)CC(C)C | 7 | 1400
CC(C)C[C@H](CC(=O)NO)C(=O)N[C@@H](CC(C)C)C(=O)N[C@@H](C)C=O | 23 | 47
CNC(=O)[C@H](Cc1ccccc1)NC(=O)[C@@H](CC(=O)NO)CC(C)C | > 1000 | –
